The values below come from patent US20170073445A1, “PHOTOPOLYMERIZABLE COMPOSITION, PHOTOPOLYMERIZABLE INK, COMPOSITION CONTAINER, IMAGE OR CURED PRODUCT FORMING METHOD, IMAGE OR CURED PRODUCT FORMING DEVICE, AND IMAGE OF CURED PRODUCT” (priority 2014, published 2017).

For data set [1] the following is noted: in vivo; cited from earlier work.
A short description of data set [2]: Viscosity by cone-plate rotor viscometer (25° C. or 60° C.). To be noted: monomer per se. Type of data set: physicochemical. The protocol:
Note that, a viscosity of the low viscous monofunctional monomer per se is preferably 3 mPa·s or less at 25° C., more preferably about 1 mPa·s or less at 25° C. The viscosity can be measured by means of a cone-plate rotor viscometer, VISCOMETER TV-22, manufactured by Toki Sangyo Co., Ltd., using a corn rotor (1° 34′×R24) at the rotational speed of 50 rpm, with setting the temperature of constant-temperature circulating water to 25° C.
The viscosity is measured by means of a cone-plate rotor viscometer, VISCOMETER TV-22, manufactured by Toki Sangyo Co., Ltd., using a corn rotor (1° 34′×R24) at the rotational speed of 50 rpm, with setting the temperature of constant-temperature circulating water to 25° C. or 60° C. As for the adjustment of the temperature of the circulating water, VISCOMATE VM-150III is used. […]
(A): t-butylmethacrylate, “Acryester TB” manufactured by MITSUBISHI RAYON CO., LTD. (negative), evaluated with the literature (test method: maximization method, viscosity at 25° C.: 0.9 mPa·s). The viscosity was measured by means of a cone-plate rotor viscometer, VISCOMETER TV-22, manufactured by Toki Sangyo Co., Ltd., using a corn rotor (1° 34′×R24) at the rotational speed of 50 rpm, with setting the temperature of constant-temperature circulating water to 25° C.

The subject of another data set is female mice. Briefly: Skin sensitization test, local lymph node assay (LLNA), SI value. Type of data set: in vivo. The settings on record: test substance 50.0 w/v % in acetone:olive oil 4:1, applied to both auricles once a day for three days. From the text:
(1) A compound having a Stimulation Index (SI value) of less than 3, where the Stimulation Index indicates the level of sensitization as measured by a skin sensitization test based on the LLNA (Local Lymph Node Assay).
Regarding the above (1), the compound having a SI value of less than 3 is considered as being negative for skin sensitization as described in literatures, for example, “Functional Material” (Kino Zairyou) September, 2005, Vol. 25, No. 9, p. 55. The lower Si value means lower skin sensitization. In the present invention, therefore, a photopolymerizable monomer having lower SI value is preferably used. The SI value is preferably less than 3, more preferably 2 or less, and even more preferably 1.6 or less.
According to the skin sensitization test of local lymph node assay (LLNA), the SI value was measured in the following manner. […]
Based on the body weights measured 2 days before the initiation of sensitization, they were categorized into 2 groups (4 mice/group) by the body weight stratified random sampling method so that the body weight of each individual was within plus or minus 20%. […]
About 24 hours after the administration of BrdU, the used animals were allowed to undergo euthanasia, and their auricular lymph nodes were sampled. […] Also, the average of the weights of the auricular lymph nodes and the standard error thereof were calculated for each group. […]

For `O=C(c1ccccc1)C1(O)CCCCC1` [1-hydroxy-cyclohexylphenylketone], in data set [1], the “Skin sensitization, evaluated with MSDS” value is recorded as “no”.
`C=C(C)C(=O)OC(C)(C)C` [t-butylmethacrylate]: the “viscosity at 25° C.” value in data set [2] was determined as 0.9 mPa·s.
Still for that read-out and setting: the same measure for `C=C(C)C(=O)OCCCCC` [n-pentyl methacrylate]: 1 mPa·s.
For the compound “tricyclodecane dimethanol dimethacrylate”, the “SI value (Stimulation Index) in the LLNA test” value with female mice is recorded as 1.3.
As to `C=C(C)C(=O)OCC(CO)OC(=O)C(=C)C` (centres unmarked) [glycerol dimethacrylate], the “SI value (Stimulation Index) in the LLNA test” value in the data set with female mice stood at 1.2.

Broadly, the viscosity is the resistance of a fluid to flow. A low value points to easy flow.
